Measurements taken from paper PMC6687188, “Novel lactate dehydrogenase inhibitors with in vivo efficacy against Cryptosporidium parvum” (PLoS Pathogens, 2019).
Non-standard residues stand in square brackets, D forms with d. Residues, ends and D or L forms follow the SMILES beside them. ξ: configuration not given here. *: point of attachment. ξNMe2Val = CC(C)C(C(=O)*)N(C)C; NMeV = CN[CH](C(=O)O)C(C)C; NHBn = c1ccc(CN*)cc1

These compounds were tested against recombinant CpLDH protein (Cryptosporidium parvum, UniProt Q9GT92, F198L/K295E/R251K).

SMILES	MEAN CpLDH INHIBITION (%)
CN/N=C(\C)C(CN1CCCCC1)C(C1=C(O)c2ccccc2OC1)c1ccccc1.Cl (stereo not drawn) [NSC647418]	-56.81%
O=C1Oc2ccccc2C1C/C(=N\Nc1ccccc1)c1ccccc1O (stereo not drawn) [NSC647613]	-29.39%
COc1cc(CC(=O)c2cc3c(cc2-c2ccccc2)OCO3)cc(OC)c1OC [NSC648419]	-12.60%
COc1cc(/C=C(\C)c2ccc3c(c2)OCO3)cc(OC)c1OC [NSC648422]	-69.44%
Cc1nc2c(o1)C(=O)c1ccccc1C2=Nc1ccccc1 [NSC650573]	-21.28%
Cc1ccc(S(=O)(=O)N2CCSCCSCCSCCSCC2)cc1 [NSC650792]	-46.61%
CCC(=O)OC1CCn2c1nc1c2C(=O)C(C)=C(N2CC2)C1=O (stereo not drawn) [NSC651079]	-28.42%
CC1=C(N2CC2)C(=O)c2nc3n(c2C1=O)CCC3OC(=O)CCl (stereo not drawn) [NSC651080]	-28.90%
COCC(=O)OC1CCn2c1nc1c2C(=O)C(C)=C(NC(C)=O)C1=O (stereo not drawn) [NSC651084]	-15.88%
OCc1ccc(-c2ccc(-c3ccc(CO)s3)o2)s1 [NSC652287]	-15.92%
OCCNCN(CNCCO)c1nc(N(CNCCO)CNCCO)nc(N(CNCCO)CNCCO)n1 [NSC653000]	-58.42%
C[CH2][Ge]([CH2]C)([CH2]C)[O]C(=O)CCC(=O)[O][Ge]([CH2]C)([CH2]C)[CH2]C [NSC653558]	-17.98%
Cc1cc(NC(=O)NC(=O)c2ccccc2NC(=O)CN)ccc1Oc1ncc(Br)cn1.Cl [NSC654259]	-46.44%
COC(=O)c1ccc(NCc2cc(O)ccc2O)cc1 [NSC654705]	-2.14%
O=C(O)c1cc(CCc2cc(O)ccc2O)ccc1O [NSC655255]	-35.82%
CCN1CCC(O)(/C=C/c2ccc(C)cc2)C(C(=O)/C=C/c2ccc(C)cc2)C1.Cl (stereo not drawn) [NSC657298]	-42.34%
COc1ccccc1/C=C1\Sc2scc(-c3cccc([N+](=O)[O-])c3)[n+]2C1=O.[Cl-] [NSC657446]	-8.01%
Cc1cc(O)c(/C=N/C(N)=S)c(=O)o1 [NSC657449]	-13.90%
Oc1[nH]c2ccccc2c1N=Nc1nc(-c2ccc(Br)cc2)cs1 [NSC657456]	-18.36%
COc1cc(/C=C2\S/C(=N/Nc3nc(-c4ccc(Br)cc4)cs3)NC2=O)cc(OC)c1OC [NSC657457]	-150.87%
O=C1/C(=C/c2ccc([N+](=O)[O-])cc2)Sc2scc(-c3cccc([N+](=O)[O-])c3)[n+]21.[Cl-] [NSC657598]	-68.44%
CCCn1c(=O)c2ccccc2[n+]2c(-c3ccc([N+](=O)[O-])cc3)csc12.[Br-] [NSC657603]	-45.82%
Cc1cccc(C)c1NC(=O)C(=O)C(c1ccccc1Cl)S(=O)(=O)Cc1ccccc1Cl (stereo not drawn) [NSC657722]	-170.05%
O=[N+]([O-])c1ccc2c(c1)/C(=N/N=C1c3ccccc3Cc3ccccc31)c1cc([N+](=O)[O-])cc([N+](=O)[O-])c1-2 [NSC658139]	-4.51%
O=C1C=C(N2CCNCC2)C(=O)c2c(O)ccc(O)c21 [NSC658144]	-3.51%
CC(=O)c1sc2[n+](c1C)C(=O)/C(=C\c1ccccc1Cl)S2 [NSC658285]	-36.39%

SMILES	MEAN CpLDH INHIBITION (%)
CCOC(=O)c1sc2[n+](c1C)C(=O)/C(=C/c1ccc([N+](=O)[O-])cc1)S2.[Cl-] [NSC658293]	-21.86%
CCn1c(O)c(C=Nc2ccccc2)s/c1=N/Nc1ncc(CC(=O)Nc2ccccc2C)s1 [NSC658350]	-19.59%
CN(C)CCCCN1CCc2c(n(C)c3ccccc23)C1=O.Cl [NSC658388]	-30.45%
CC(=O)N=C1N(/C=C2\C(=O)Oc3ccccc3C2=O)C(=O)/C(=C/c2ccccc2Cl)N1C [NSC658494]	-56.68%
COc1ccc(NC(=O)C(=O)/C=C(\O)c2ccccc2)cc1 [NSC658709]	-17.00%
O=C(CC(O)(C(F)(F)F)C(F)(F)Cl)CC(O)(C(F)(F)F)C(F)(F)Cl (stereo not drawn) [NSC659174]	-13.23%
CN=c1sc2c(n1C)C(=O)c1ccccc1C2=O [NSC659501]	-27.66%
COCCOC1=C(Cl)C(=O)c2c(O)ccc(O)c2C1=O [NSC659997]	-9.35%
Cl.O=C1C=CC(=O)c2c(O)c(N3CCN(CCOCCO)CC3)c(Br)c(O)c21 [NSC659999]	-30.12%
Cc1nn(-c2ccccc2)c2c1CC(=O)Nc1ccccc1-2 [NSC662553]	-64.36%
C=C(Cl)C(Cl)(CBr)CCC(Br)C(C)(C)Cl (stereo not drawn) [NSC662825]	-7.35%
COc1ccc(NC2=NCCO2)c2c1CCCC2 [NSC663996]	-51.63%
O=C1C(C(O)(C(F)(F)F)C(F)(F)F)CCC1C(O)(C(F)(F)F)C(F)(F)F (stereo not drawn) [NSC664181]	-5.59%
CN(NC1=NCCO1)c1ccc2ccccc2c1 [NSC664286]	-26.92%
CC(Cc1ccccc1)NC1=NCCO1 (stereo not drawn) [NSC664298]	-116.71%
CC(=O)C(N1CCCCC1)C(O)(C(F)(F)F)C(F)(F)F (stereo not drawn) [NSC664327]	-14.71%
O/N=C(/CC(O)(C(F)(F)F)C(F)(F)F)c1cccc(Cl)c1 [NSC664329]	-28.29%
CC1=CC(=O)c2cccc(NC3=NCCO3)c21 [NSC664331]	-15.78%
[N-]=[N+]=NC1=NNC2(C(=O)N1)c1ccccc1-c1ccccc12 [NSC666168]	-17.65%
CCCCCCC1CC(=O)C1(Cl)Cl (stereo not drawn) [NSC666526]	-2.48%
CCOC(=O)Cc1cc(=O)oc2cc(O)ccc12 [NSC667235]	-25.51%
CN(C)c1cccc(/C=C(\C#N)c2ccccc2)c1 [NSC667251]	-17.96%
S=C1Nc2cnc3ccccc3c2SC1c1ccccc1 (stereo not drawn) [NSC667467]	-21.66%
C=C1CC(Cn2cc(Br)c(=O)[nH]c2=O)(c2ccc(-c3ccccc3)cc2)OC1=O (stereo not drawn) [NSC668260]	-9.25%
C=C1CC(COc2cc(=O)oc3ccccc23)(c2ccccc2)OC1=O (stereo not drawn) [NSC668270]	-4.80%
CC(C)C(NC(=O)C(C(C)C)N(C)C)C(=O)N(C)C(C(=O)N1CCCC1C(=O)N1CCCC1C(=O)NCc1ccccc1)C(C)C.Cl (stereo not drawn) [NSC669356] (ξNMe2Val-V[NMeV]PP-NHBn; configuration not given here)	-120.43%

SMILES	MEAN CpLDH INHIBITION (%)
O=C(ON=C1c2ccccc2C(Br)C(Br)c2ccccc21)c1ccccc1 (stereo not drawn) [NSC670140]	-63.78%
CN(C)CCOC1(Cc2ccc(Cl)cc2Cl)CCC(C(C)(C)C)CC1.Cl (stereo not drawn) [NSC670224]	-73.95%
Cc1ccc(CC2(OCCN(C)C)CCC(C(C)(C)C)CC2)cc1.O=C(O)/C=C/C(=O)O (stereo not drawn) [NSC670225]	-54.38%
CN(C)CCOC1(Cc2ccc(F)cc2)CCC(C(C)(C)C)CC1.O=C(O)/C=C/C(=O)O (stereo not drawn) [NSC670226]	-20.67%
Cc1ccc(CC2(OCCN(C)C)CCC(C(C)(C)C)CC2)cc1.O=C(O)/C=C/C(=O)O (stereo not drawn) [NSC670229]	-52.64%
CC(=O)c1sc2c(c1OC(=O)c1ccc(Cl)cc1Cl)c(=O)n(-c1ccccc1)c(=S)n2-c1ccccc1 [NSC671136]	-17.97%
COc1ccc(N=C2C(=Nc3ccc(OC)cc3)N(c3ccc(N(C)C)cc3)C(=S)N2c2ccc(OC)cc2)cc1 [NSC671394]	-158.34%
O=[N+]([O-])c1ccc2oc(=Nc3ccccc3)c(Nc3ccccc3)nc2c1 [NSC671424]	-1.46%
N[C@@H](Cc1ccc2oc3cc(=O)c4ccccc4c-3nc2c1)C(=O)O [NSC672425]	-0.60%
CCCCCCCCCCCCCCCC[N+](C)(C)CCl.[Cl-] [NSC672904]	-0.06%
COC(=O)C1CCC(=O)N1C(c1ccc(OC)cc1)c1cc(OC)c(OC)c(OC)c1 (stereo not drawn) [NSC673622]	-14.54%
NC(=O)N/N=C1\CC2C3CC4C2C4C13 (stereo not drawn) [NSC673912]	-116.36%
Cc1cc(-c2nc3ccccc3s2)ccc1N [NSC674495]	-21.24%
CCCN(CCC)C(=S)Sc1nc(C)nc(N2CCN(c3nc(C)nc(SC(=S)N(CCC)CCC)c3[N+](=O)[O-])CC2)c1[N+](=O)[O-] [NSC675593]	-141.86%
COc1ccccc1[S+]([O-])Nc1ccccc1 (stereo not drawn) [NSC676561]	-16.89%
O=C(O)/C=C\C(=O)O.[N-]=[N+]=Nc1ccc2c(c1)Sc1ccccc1N2CCCCN1CCN(Cc2ccc(C(=O)c3ccccc3)cc2)CC1 [NSC676963]	-97.54%
COc1ccc(NC(=O)CC(=O)N2N=C(C)C(N=Nc3ccc(S(=O)(=O)c4ccc(N=NC5C(=O)N(C(=O)CC(=O)Nc6ccc(OC)cc6)N=C5C)cc4)cc3)C2=O)cc1 (stereo not drawn) [NSC677392]	-119.10%
COc1ccc(OC)c2nc3c(C(=O)NCCN(C)C)cccc3nc12.Cl [NSC678917]	-41.85%
CN(C)CCNC(=O)c1cccc2[nH]c(-c3ccncc3)nc12.Cl [NSC678932]	-5.91%
COC(=O)c1c[nH]c2c1-c1cc(C(=O)OCc3ccccc3)n(S(=O)(=O)c3ccc(C)cc3)c1C(=O)C2=O [NSC679524]	-184.78%
COC(=O)c1cc(-c2c[nH]cc2C(=O)OCc2ccccc2)cn1S(=O)(=O)c1ccc(C)cc1 [NSC679527]	-27.66%
CC1=C/C(=N\OCC(=O)O)CC(c2ccc(C(C)C)cc2)C1 (stereo not drawn) [NSC680506]	-8.88%
Cl.NC1(CCNC(=O)c2ccccc2)CCN(C(=O)c2ccccc2)CC1 [NSC680509]	-41.56%
Cc1cc(N(C)C)ccc1N=Nc1ccc2ncccc2c1 [NSC680516]	-19.55%
N#CC(NCc1cccc(CNC(C#N)c2ccccc2)c1)c1ccccc1 (stereo not drawn) [NSC681730]	-12.34%
CCC(C#N)(c1ccccc1)N(CCc1ccccc1)C(=O)c1ccccc1 (stereo not drawn) [NSC681741]	-7.66%
